Patent publication US12419873B2, “Use of JAK inhibitors in preparation of drugs for treating JAK kinase-related diseases” (ZHUHAI UNITED LABORATORIES CO., LTD., priority 2020, dated 2025)
pIC50: −log10 of the molar value. Entries after “also recorded” stand apart in the source; their conditions may differ.

What was measured:
JAK3 = JAK3 (Homo sapiens (Human), UniProt P52333); experiment: In vitro activity test of JAK3 kinase; type: biochemical
Method: (§1) Recombinant human JAK1, JAK2, JAK3, TyK2 protease, main instruments and reagents were provided by Eurofins in the UK
(§2) All compounds were prepared into a 100% DMSO solution and reached 50 times the final determined concentration. The test compound was diluted by 3 times the concentration gradient, and the final concentration was 10 μM to 0.001 μM, 9 concentrations in total, and the content of DMSO in the detection reaction was 2%. The working stock solution of the compound was added to a determination hole as the first component of the reaction, and then the remaining components were added according to the detailed scheme determination below.
(§3) Mg/ATP mixture was added to start the reaction. After incubation at room temperature for 40 minutes, 0.5% phosphoric acid was added to stop the reaction.

TYK2 = TYK2 (Homo sapiens (Human), UniProt P29597); experiment: In vitro activity test of TYK2 kinase; type: biochemical
Method: as §1, §2, §3

JAK2 = JAK2 (Homo sapiens (Human), UniProt O60674); experiment: In vitro activity test of JAK2 kinase; conditions: read-out: JAK2 (IC50)
JAK1 = JAK1 (Homo sapiens (Human), UniProt P23458); experiment: In vitro activity test of JAK1 kinase; type: biochemical
Method: as §1, §2, §3

[1] = tested on: DSS induced ulcerative colitis and Crohn's disease in mice; experiment: In vivo pharmacodynamic study on DSS induced inflammatory bowel disease (IBD) in mice; design: species or system mice (C57BL/6); Colon length: unit not given here; conditions: for Colon length: after the experiment
Description: Inflammatory bowl disease (IBD) is a kind of recurrent disease. It is difficult to cure, has a high recurrence rate, and has a poor prognosis, it has a certain correlation with the incidence of colon cancer. The development of drugs for the treatment of IBD will help alleviate the symptoms of ulcerative colitis and Crohn's disease and improve the quality of life of patients. The mouse inflammation model induced by dextran sulfate sodium (DSS) is similar to the human disease ulcerative colitis and Crohn's disease. It is a common classical model for preclinical evaluation of drug efficacy.
Preparation method of DSS: 20 g DSS was weighed, 1000 mL drinking water was added to form 2% DSS solution, and stored in a 4° C. refrigerator. It is effective within one month.
Preparation method of a solvent: Vehicle solution is an aqueous solution containing 0.5% methylcellulose and 0.5% Tween 80. Firstly, 5 g of methylcellulose was dissolved in 990 mL of pure water, then 5 g of Tween 80 was added in small amount for many times, mixed evenly and stored at room temperature.
Preparation method of compounds: the compound was weighed, an aqueous solution with a mass ratio of 0.5% methylcellulose+0.5% Tween 80 was added, and it was processed by ultrasonic until it was dissolved.
The adaptation period of the animals was 3 days. After adaptation, the animals were weighed every day. The blank group was given drinking water, and the other groups were given drinking water containing 2% DSS. The water volume was 5 mL/animal/day. The animals in the test drug group were administrated by gavage once a day. The blank group and […] group were given the same volume of vehicle, with the administration volume of 10 mL/kg. Every other day, the fecal viscosity was evaluated, feces were collected for fecal occult blood detection, and the disease activity index (DAI) score was calculated. DSS consumption was detected every day. Fresh DSS solution was replaced every two days. The dosing cycle was continuous intragastric administration for 7 days, followed by 4 days of drug withdrawal, followed by 7 days of continuous intragastric administration. Normal drinking water was changed when intragastric administration was stopped.
DAI is the sum of the scores of body weight, fecal viscosity and fecal occult blood. Among them, the semi quantitative detection method of piramine cave was adopted for detecting fecal occult blood, including adding piramine cave to the sample first, then adding hydrogen peroxide and ethanol solution, and reading and scoring the color within 2 min. Immediately generating purple blue is marked as 4+, generating the purple blue within 10 s is marked as 3+, generating purple red within 1 min is marked as 2+, and gradually generating the purple red within 1-2 min is marked as 1+, and generating no color reaction of purple orchid or purple red within the reading time is recorded as negative (−). After the experiment, the colon and spleen were taken, and the length of colon and the weight of spleen were measured. The spleen index was the ratio of spleen weight to body weight.

[2] = tested on: DNCB induced allergic dermatitis in mice; experiment: In vivo pharmacodynamic study on DNCB induced allergic dermatitis (AD) in mice
Method: The animal allergic dermatitis model induced by 1-chloro-2,4-dinitrobenzene (DNCB) is basically consistent with the clinical manifestations of AD patients.
Preparation method of solvent: vehicle solution is 30% PEG-400+70% (5% HP-β-CD), pH 4-5. Firstly, 35 g HP-β-CD was dissolved in 700 mL MilliQ pure water, 300 mL PEG-400 was added and mixed well, the pH was adjusted to 4-5, and stored at room temperature.
Preparation method of compounds: the compounds were weighed and added to 30% PEG-400+ 70% (5% HP-β-CD) solution (by volume), and ultrasonically processed. After the solution was fully mixed, it is load into glass bottles and stored in a 4° C. refrigerator.
Seventy male Balb/c mice were weighed and randomly divided into 7 groups with 10 mice in each group.
The animal adaptation period was 3 days. It was adapted to shaving on the back. After 2 days, it was sensitized with the modeling solution, coated with 20 μL 0.5% DNCB solution on the right ear of the mouse, applied with 200 μL 0.5% DNCB solution on the back, once a day for 3 days. The mice were stimulated from day 4, and applied with 10 μL 1% DNCB solution on the right ear of mice, 100 μL 1% DNCB solution on the back of mice, respectively, once every 3 days.
On days 3, 9, 15, 21, and 27, the severity of specific dermatitis was evaluated by evaluating four clinical inflammatory indicators of atopic dermatitis: Erythema/bleeding, scar/dryness, edema, and infiltration/erosion. Each evaluation index has four grades: 0, none; 1. slight; 2. moderate; 3. obvious; 4. very obvious. Sum the scores represents score of the skin. […] The spleen was taken and the spleen index was calculated: spleen index=spleen weight (mg)/body weight (g).
The experimental data were expressed by means±standard error (Mean±SEM), and all data were statistically analyzed by one-way ANOVA, with P<0.05 as the statistical difference.

[3] = day 2, 15 mg/kg p.o. qd, Mean±SEM
[4] = day 4, 15 mg/kg p.o. qd, Mean±SEM
[5] = day 6, 15 mg/kg p.o. qd, Mean±SEM
[6] = day 8, 15 mg/kg p.o. qd, Mean±SEM
[7] = day 12, 15 mg/kg p.o. qd, Mean±SEM
[8] = day 14, 15 mg/kg p.o. qd, Mean±SEM
[9] = day 16, 15 mg/kg p.o. qd, Mean±SEM
[10] = day 18, 15 mg/kg p.o. qd, Mean±SEM
[11] = after the experiment, 30 mg/kg p.o. qd, 28 days, Mean±SEM
[12] = day 3, 30 mg/kg p.o. qd from day 4, Mean±SEM
[13] = day 4, 30 mg/kg p.o. qd, Mean±SEM
[14] = day 9, 30 mg/kg p.o. qd, Mean±SEM
[15] = day 10, 30 mg/kg p.o. qd, Mean±SEM
[16] = day 13, 30 mg/kg p.o. qd, Mean±SEM
[17] = day 15, 30 mg/kg p.o. qd, Mean±SEM
[18] = day 16, 30 mg/kg p.o. qd, Mean±SEM
[19] = day 21, 30 mg/kg p.o. qd, Mean±SEM
[20] = day 27, 30 mg/kg p.o. qd, Mean±SEM
[21] = day 21 of administration, 30 mg/kg p.o.
[22] = day 2, 30 mg/kg p.o. qd, Mean±SEM
[23] = day 6, 30 mg/kg p.o. qd, Mean±SEM
[24] = day 8, 30 mg/kg p.o. qd, Mean±SEM
[25] = day 12, 30 mg/kg p.o. qd, Mean±SEM
[26] = day 14, 30 mg/kg p.o. qd, Mean±SEM
[27] = day 18, 30 mg/kg p.o. qd, Mean±SEM

Sequence of TYK2 (P29597 whole entry): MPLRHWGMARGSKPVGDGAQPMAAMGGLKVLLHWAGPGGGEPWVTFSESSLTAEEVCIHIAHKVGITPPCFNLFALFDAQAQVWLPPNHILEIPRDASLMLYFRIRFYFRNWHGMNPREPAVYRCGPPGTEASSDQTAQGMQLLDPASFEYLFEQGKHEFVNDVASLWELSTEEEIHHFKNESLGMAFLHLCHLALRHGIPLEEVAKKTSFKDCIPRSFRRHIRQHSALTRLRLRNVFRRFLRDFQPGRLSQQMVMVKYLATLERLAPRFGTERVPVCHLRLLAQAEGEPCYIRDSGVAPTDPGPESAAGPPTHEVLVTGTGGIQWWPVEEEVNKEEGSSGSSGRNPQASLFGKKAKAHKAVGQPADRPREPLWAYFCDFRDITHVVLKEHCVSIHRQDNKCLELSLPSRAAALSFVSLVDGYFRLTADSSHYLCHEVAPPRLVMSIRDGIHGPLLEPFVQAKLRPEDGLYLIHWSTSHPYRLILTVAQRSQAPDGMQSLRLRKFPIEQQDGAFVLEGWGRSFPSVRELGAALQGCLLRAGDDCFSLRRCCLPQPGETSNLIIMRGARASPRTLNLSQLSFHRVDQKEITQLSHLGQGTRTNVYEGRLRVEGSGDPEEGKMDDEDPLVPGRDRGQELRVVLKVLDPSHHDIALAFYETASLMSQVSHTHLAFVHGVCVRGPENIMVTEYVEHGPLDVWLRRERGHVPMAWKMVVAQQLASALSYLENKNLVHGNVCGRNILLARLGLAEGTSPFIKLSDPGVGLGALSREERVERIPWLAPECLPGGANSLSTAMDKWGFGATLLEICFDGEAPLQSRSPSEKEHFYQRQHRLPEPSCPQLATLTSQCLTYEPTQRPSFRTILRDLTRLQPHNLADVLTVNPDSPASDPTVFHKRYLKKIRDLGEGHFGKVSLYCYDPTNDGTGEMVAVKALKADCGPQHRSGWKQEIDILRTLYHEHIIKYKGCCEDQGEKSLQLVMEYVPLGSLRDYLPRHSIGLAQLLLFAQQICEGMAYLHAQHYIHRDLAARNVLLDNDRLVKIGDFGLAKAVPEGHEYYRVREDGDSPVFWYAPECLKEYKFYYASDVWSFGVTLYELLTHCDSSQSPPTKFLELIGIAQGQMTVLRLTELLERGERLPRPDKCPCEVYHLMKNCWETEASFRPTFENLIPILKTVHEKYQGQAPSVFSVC
Sequence of JAK3 (P52333 whole entry): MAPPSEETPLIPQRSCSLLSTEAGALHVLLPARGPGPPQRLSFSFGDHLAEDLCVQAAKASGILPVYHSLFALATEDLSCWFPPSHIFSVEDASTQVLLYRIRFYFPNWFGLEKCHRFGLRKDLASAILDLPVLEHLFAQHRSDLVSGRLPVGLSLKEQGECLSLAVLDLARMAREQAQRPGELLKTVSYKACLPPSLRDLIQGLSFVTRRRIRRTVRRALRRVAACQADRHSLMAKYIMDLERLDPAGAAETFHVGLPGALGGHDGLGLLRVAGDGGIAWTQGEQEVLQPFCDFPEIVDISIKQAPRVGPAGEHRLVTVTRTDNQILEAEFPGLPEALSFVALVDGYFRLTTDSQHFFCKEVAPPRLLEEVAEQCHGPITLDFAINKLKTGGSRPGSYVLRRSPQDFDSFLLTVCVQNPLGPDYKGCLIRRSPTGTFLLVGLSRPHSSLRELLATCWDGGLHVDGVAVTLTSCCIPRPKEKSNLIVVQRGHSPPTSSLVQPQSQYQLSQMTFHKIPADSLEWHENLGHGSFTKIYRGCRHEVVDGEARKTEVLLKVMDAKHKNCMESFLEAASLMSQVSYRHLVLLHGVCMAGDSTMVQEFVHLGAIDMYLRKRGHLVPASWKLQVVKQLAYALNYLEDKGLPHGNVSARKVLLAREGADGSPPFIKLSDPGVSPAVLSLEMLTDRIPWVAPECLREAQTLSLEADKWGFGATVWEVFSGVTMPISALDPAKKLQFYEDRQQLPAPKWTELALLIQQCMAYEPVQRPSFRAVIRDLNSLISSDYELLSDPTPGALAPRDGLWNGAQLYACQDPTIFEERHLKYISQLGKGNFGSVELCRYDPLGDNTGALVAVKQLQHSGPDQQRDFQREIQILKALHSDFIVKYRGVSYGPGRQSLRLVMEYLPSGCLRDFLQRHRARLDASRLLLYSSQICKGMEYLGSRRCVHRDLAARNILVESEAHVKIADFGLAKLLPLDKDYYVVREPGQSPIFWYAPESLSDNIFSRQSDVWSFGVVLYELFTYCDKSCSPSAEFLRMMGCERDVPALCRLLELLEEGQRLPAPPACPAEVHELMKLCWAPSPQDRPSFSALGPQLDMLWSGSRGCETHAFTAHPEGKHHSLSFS
Sequence of JAK1 (P23458 whole entry): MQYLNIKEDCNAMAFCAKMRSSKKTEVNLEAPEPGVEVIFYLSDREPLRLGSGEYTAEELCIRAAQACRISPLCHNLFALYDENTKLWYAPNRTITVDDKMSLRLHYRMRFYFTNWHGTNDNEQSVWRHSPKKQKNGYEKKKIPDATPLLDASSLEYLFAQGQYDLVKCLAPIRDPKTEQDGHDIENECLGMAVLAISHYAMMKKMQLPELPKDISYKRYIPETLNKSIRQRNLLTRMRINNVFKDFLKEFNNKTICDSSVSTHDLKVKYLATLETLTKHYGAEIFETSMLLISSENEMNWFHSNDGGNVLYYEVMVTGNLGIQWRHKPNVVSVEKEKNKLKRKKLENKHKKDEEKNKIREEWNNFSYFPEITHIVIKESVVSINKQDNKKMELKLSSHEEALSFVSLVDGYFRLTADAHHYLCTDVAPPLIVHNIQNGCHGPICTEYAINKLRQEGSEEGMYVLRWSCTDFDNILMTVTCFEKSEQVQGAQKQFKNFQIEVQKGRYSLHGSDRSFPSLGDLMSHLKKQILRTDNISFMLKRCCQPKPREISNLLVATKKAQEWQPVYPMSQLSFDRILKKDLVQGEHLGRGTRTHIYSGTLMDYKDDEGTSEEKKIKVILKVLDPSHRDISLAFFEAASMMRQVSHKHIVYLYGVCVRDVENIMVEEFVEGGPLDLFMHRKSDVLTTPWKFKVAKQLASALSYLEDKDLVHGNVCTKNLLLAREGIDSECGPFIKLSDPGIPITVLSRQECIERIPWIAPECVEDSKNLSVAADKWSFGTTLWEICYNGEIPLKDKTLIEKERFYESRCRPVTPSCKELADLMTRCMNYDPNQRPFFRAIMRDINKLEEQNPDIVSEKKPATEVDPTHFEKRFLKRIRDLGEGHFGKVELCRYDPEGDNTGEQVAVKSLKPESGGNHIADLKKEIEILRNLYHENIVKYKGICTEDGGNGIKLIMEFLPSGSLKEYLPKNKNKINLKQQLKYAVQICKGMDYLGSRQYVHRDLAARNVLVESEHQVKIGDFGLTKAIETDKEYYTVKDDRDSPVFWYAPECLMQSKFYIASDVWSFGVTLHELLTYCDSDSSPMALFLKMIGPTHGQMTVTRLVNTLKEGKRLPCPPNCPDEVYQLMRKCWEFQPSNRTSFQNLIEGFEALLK
Sequence of JAK2 (O60674 whole entry): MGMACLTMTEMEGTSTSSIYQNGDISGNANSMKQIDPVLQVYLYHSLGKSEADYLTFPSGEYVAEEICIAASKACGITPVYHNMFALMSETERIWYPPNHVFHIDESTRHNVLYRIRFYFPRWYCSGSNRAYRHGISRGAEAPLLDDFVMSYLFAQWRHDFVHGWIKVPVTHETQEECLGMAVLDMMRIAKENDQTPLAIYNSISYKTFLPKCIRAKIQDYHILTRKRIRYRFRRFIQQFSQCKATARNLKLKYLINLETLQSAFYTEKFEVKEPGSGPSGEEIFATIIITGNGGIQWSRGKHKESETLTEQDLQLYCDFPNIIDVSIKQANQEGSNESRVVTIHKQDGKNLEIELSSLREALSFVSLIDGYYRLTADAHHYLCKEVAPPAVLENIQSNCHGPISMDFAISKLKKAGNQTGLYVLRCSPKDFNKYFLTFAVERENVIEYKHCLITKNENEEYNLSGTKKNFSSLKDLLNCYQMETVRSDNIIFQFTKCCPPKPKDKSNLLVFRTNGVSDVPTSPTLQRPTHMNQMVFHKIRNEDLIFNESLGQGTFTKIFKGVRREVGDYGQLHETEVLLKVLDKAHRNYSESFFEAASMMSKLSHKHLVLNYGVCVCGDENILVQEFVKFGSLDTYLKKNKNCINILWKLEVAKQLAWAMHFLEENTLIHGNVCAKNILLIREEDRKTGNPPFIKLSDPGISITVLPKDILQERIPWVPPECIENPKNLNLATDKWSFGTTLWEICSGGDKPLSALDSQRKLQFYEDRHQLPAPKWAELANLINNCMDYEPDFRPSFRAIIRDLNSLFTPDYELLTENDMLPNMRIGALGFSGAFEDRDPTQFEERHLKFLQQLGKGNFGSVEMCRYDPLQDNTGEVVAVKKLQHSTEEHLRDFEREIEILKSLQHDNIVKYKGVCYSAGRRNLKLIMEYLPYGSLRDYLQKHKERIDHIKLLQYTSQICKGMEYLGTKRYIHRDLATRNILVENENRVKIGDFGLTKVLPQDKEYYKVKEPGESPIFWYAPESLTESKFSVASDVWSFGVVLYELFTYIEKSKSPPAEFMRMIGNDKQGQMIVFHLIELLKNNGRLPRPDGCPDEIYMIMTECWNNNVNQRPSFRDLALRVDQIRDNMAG

O=C(Nc1nc2cccc(C3CCC4(CC3)CCN(C(=O)C3CC3(F)F)C4)n2n1)C1CC1 (single isomer, unassigned) [Compound 5-7]
pIC50 (JAK3): 5.24
pIC50 (TYK2): 7.17
pIC50 (JAK2): 6.49
pIC50 (JAK1): 7.51

O=C(Nc1nc2cccc(C3CCC4(CC3)CCN(C(=O)C3CC3(F)F)C4)n2n1)C1CC1 (single isomer, unassigned) [Compound 5-8]
pIC50 (JAK3): 5.13
pIC50 (TYK2): 6.16
pIC50 (JAK2): 6.10
pIC50 (JAK1): 7.12

O=C(Nc1nc2cccc([C@H]3CCC4(C3)CN(C(=O)[C@@H]3CC3(F)F)C4)n2n1)C1CC1 (single isomer, unassigned) [Compound 7-7]
pIC50 (JAK3): < 5.00
pIC50 (TYK2): 6.08
pIC50 (JAK1): 7.20

N#CC1(C(=O)N2CC3(CCC(c4cccc5nc(NC(=O)C6CC6)nn45)CC3)C2)CC1 [Compound 1-11]
Colon length ([1]; 15 mg/kg p.o. qd, Mean±SEM): 2.84 ± 0.21
Weight of mice ([1]; day 1, 15 mg/kg p.o. qd, Mean±SEM): 22.63 ± 0.29
DAI score [1, 3]: 0.30 ± 0.15
Weight of mice [1, 3]: 22.64 ± 0.28
Weight of mice ([1]; day 3, 15 mg/kg p.o. qd, Mean±SEM): 22.20 ± 0.28
DAI score [1, 4]: 1.50 ± 0.34
Weight of mice [1, 4]: 21.75 ± 0.25
Weight of mice ([1]; day 5, 15 mg/kg p.o. qd, Mean±SEM): 20.90 ± 0.30
DAI score [1, 5]: 3.50 ± 0.27
Weight of mice [1, 5]: 20.33 ± 0.28
Weight of mice ([1]; day 7, 15 mg/kg p.o. qd, Mean±SEM): 20.64 ± 0.38
DAI score [1, 6]: 4.20 ± 0.79
Weight of mice [1, 6]: 20.44 ± 0.58
Weight of mice ([1]; day 9, 15 mg/kg p.o. qd, Mean±SEM): 19.49 ± 0.77
Weight of mice ([1]; day 10, 15 mg/kg p.o. qd, Mean±SEM): 19.00 ± 0.87
Weight of mice ([1]; day 11, 15 mg/kg p.o. qd, Mean±SEM): 19.73 ± 0.77
DAI score [1, 7]: 3.11 ± 0.49
Weight of mice [1, 7]: 20.09 ± 0.90
Weight of mice ([1]; day 13, 15 mg/kg p.o. qd, Mean±SEM): 20.88 ± 0.86
DAI score [1, 8]: 3.22 ± 0.79
Weight of mice [1, 8]: 20.67 ± 0.84
Weight of mice ([1]; day 15, 15 mg/kg p.o. qd, Mean±SEM): 20.82 ± 0.91
DAI score [1, 9]: 4.44 ± 0.67
Weight of mice [1, 9]: 20.41 ± 1.05
Weight of mice ([1]; day 17, 15 mg/kg p.o. qd, Mean±SEM): 19.85 ± 1.05
DAI score [1, 10]: 5.89 ± 0.51
Weight of mice [1, 10]: 18.84 ± 1.06
Effect on the weight of mice (in words) ([2]; 30 mg/kg p.o. qd, 28 days): no significant effect
IgE concentration in serum [2, 11]: 7.46 ± 1.34
Thickness of the right ear [2, 11]: 0.283 ± 0.006
Weight of mice ([2]; day 1, 30 mg/kg p.o. qd from day 4, Mean±SEM): 19.45 ± 0.59
Skin score [2, 12]: 0.9 ± 0.3
Weight of mice [2, 13]: 20.15 ± 0.46
Skin score [2, 14]: 3.6 ± 1.1
Weight of mice [2, 15]: 20.21 ± 0.62
Weight of mice [2, 16]: 20.24 ± 0.41
Skin score [2, 17]: 4.4 ± 0.8
Weight of mice [2, 18]: 20.63 ± 0.43
Weight of mice ([2]; day 19, 30 mg/kg p.o. qd, Mean±SEM): 22.50 ± 0.40
Skin score [2, 19]: 5.4 ± 0.7
Weight of mice ([2]; day 22, 30 mg/kg p.o. qd, Mean±SEM): 23.97 ± 0.42
Weight of mice ([2]; day 25, 30 mg/kg p.o. qd, Mean±SEM): 22.45 ± 0.36
Skin score [2, 20]: 2.9 ± 1.2
Weight of mice ([2]; day 28, 30 mg/kg p.o. qd, Mean±SEM): 22.66 ± 0.34

O=C(Nc1nc2cccc(C3CCC4(CC3)CN(C(=O)[C@@H]3CC3(F)F)C4)n2n1)C1CC1 [Compound 1-13]
Effect on treating allergic dermatitis (in words) ([2]; 30 mg/kg p.o. qd, DNCB mice): good disease treatment effect; also recorded: significant effect
Thickness of the right ear after drug intervention (in words) ([2]; 30 mg/kg p.o., vs DNCB group): significantly decreased
Thickness of the right ear [2, 11]: 0.232 ± 0.004
Skin score [2, 12]: 0.5 ± 0.5
Skin score [2, 14]: 3.9 ± 1.6
Skin score [2, 17]: 3.7 ± 0.6
Skin score [2, 19]: 5.0 ± 1.0
Effect on skin score compared with positive drug Alonson [2, 21]: better effect
Skin score compared with DNCB group (in words) [2, 21]: significantly decreased
Skin score [2, 20]: 1.5 ± 0.5
Skin score compared with DNCB group (in words) ([2]; day 27 of administration, 30 mg/kg p.o.): significant reduction

N#CCCN1CC2(CCC(c3cccc4nc(NC(=O)C5CC5)nn34)CC2)C1 [Compound 1-17]
pIC50 (JAK3): < 5.00
pIC50 (TYK2): 6.43
pIC50 (JAK1): 7.19

O=C(Nc1nc2cccc([C@@H]3CCC4(C3)CN(C(=O)[C@@H]3CC3(F)F)C4)n2n1)C1CC1 [Compound 7-8]
pIC50 (JAK3): < 5.00
pIC50 (TYK2): 6.39
pIC50 (JAK1): 6.75

O=C(Nc1nc2cccc(-c3ccc(CN4CCS(=O)(=O)CC4)cc3)n2n1)C1CC1 [Filgotinib, reference compound]
Colon shortening caused by DSS, compared with DSS group (in words) ([1]; 30 mg/kg p.o.): can reduce colon shortening
Increase of spleen index induced by DSS (in words) ([1]; 30 mg/kg p.o.): could reduce the increase of spleen index
Significance of inhibition of spleen index increase ([1]; 30 mg/kg p.o., vs DSS group): significant inhibitory effect
Colon length ([1]; 30 mg/kg p.o. qd, Mean±SEM): 3.13 ± 0.10
Weight of mice ([1]; day 1, 30 mg/kg p.o. qd, Mean±SEM): 22.10 ± 0.42
DAI score [1, 22]: 1.20 ± 0.42
Weight of mice [1, 22]: 22.35 ± 0.41
Weight of mice ([1]; day 3, 30 mg/kg p.o. qd, Mean±SEM): 22.11 ± 0.31
DAI score [1, 13]: 2.20 ± 0.61
Weight of mice [1, 13]: 22.07 ± 0.38
Weight of mice ([1]; day 5, 30 mg/kg p.o. qd, Mean±SEM): 21.61 ± 0.47
DAI score [1, 23]: 2.90 ± 0.43
Weight of mice [1, 23]: 21.21 ± 0.55
Weight of mice ([1]; day 7, 30 mg/kg p.o. qd, Mean±SEM): 20.28 ± 0.47
DAI score [1, 24]: 6.40 ± 0.69
Weight of mice [1, 24]: 19.65 ± 0.47
Weight of mice [1, 14]: 18.57 ± 0.49
Weight of mice [1, 15]: 17.98 ± 0.62
Weight of mice ([1]; day 11, 30 mg/kg p.o. qd, Mean±SEM): 17.85 ± 0.80
DAI score [1, 25]: 3.56 ± 0.82
Weight of mice [1, 25]: 18.27 ± 0.91
Weight of mice [1, 16]: 19.21 ± 0.94
DAI score [1, 26]: 3.00 ± 0.57
Weight of mice [1, 26]: 20.16 ± 0.61
Weight of mice [1, 17]: 21.11 ± 0.58
DAI score [1, 18]: 3.00 ± 0.96
Weight of mice [1, 18]: 21.09 ± 0.53
Weight of mice ([1]; day 17, 30 mg/kg p.o. qd, Mean±SEM): 20.58 ± 0.38
DAI score [1, 27]: 3.52 ± 0.73
Weight of mice [1, 27]: 19.59 ± 0.34
Spleen index ([1]; ratio of spleen weight to body weight, 30 mg/kg p.o. qd, Mean±SEM): 4.04 ± 0.18
